From PMC12490239, “Combining BET inhibition with SMAC mimetics restricts tumor growth and triggers immune surveillance in preclinical cancer models” (Cell Reports Medicine, 2025)

Tests used:
Assay in all cases: cells
Parameters in all cases: CellTiter-Glo 2.0 luminescence proliferation/viability assay, single agents, human tumour cell line panel
[1] = system: COCM1; details: CoCM-1, 96 h; single agent; read-out: IC50 SMACm
Summary of the method: (§1)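 Human tumour cell lines were seeded into assay plates and held at 37°C with 5% CO2 for twenty-four hours, then exposed in triplicate to rising concentrations of the SMAC mimetic, from 4.5 nM to 10 μM, with DMSO as control. After 96 h, viability was read as CellTiter-Glo2.0 luminescence to derive single-agent IC50 values.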

[2] = system: COLO-320-HSR; details: Homo sapiens, COLO-320-HSR, 96 h; single agent; read-out: IC50 SMACm
Summary of the method: as §1

[3] = system: HCA7; details: HCA-7, 96 h; single agent; read-out: IC50 SMACm
Summary of the method: as §1

[4] = system: HCC1195; details: 96 h; single agent; read-out: IC50 SMACm
Summary of the method: as §1

[5] = system: HCC1833; details: 96 h; single agent; read-out: IC50 SMACm
Summary of the method: as §1

[6] = system: IM-95; details: Homo sapiens, IM95, 96 h; single agent; read-out: IC50 SMACm
Summary of the method: as §1

[7] = system: KM12L4; details: KM 12L4, 96 h; single agent; read-out: IC50 SMACm
Summary of the method: as §1

[8] = system: LS-174T; details: Homo sapiens, LS174T, 96 h; single agent; read-out: IC50 SMACm
Summary of the method: as §1

[9] = system: NCI-H1838; details: Homo sapiens, NCI-H1838, 96 h; single agent; read-out: IC50 SMACm
Summary of the method: as §1

[10] = system: NCI-H1975; details: Homo sapiens, NCI-H1975, 96 h; single agent; read-out: IC50 SMACm
Summary of the method: as §1

[11] = system: SNU1047; details: 96 h; single agent; read-out: IC50 SMACm
Summary of the method: as §1

[12] = system: SNU1544; details: 96 h; single agent; read-out: IC50 SMACm
Summary of the method: as §1

[13] = system: SNU1684; details: 96 h; single agent; read-out: IC50 SMACm
Summary of the method: as §1

[14] = system: SNU254; details: 96 h; single agent; read-out: IC50 SMACm
Summary of the method: as §1

[15] = system: SW1417; details: Homo sapiens, SW1417, 96 h; single agent; read-out: IC50 SMACm
Summary of the method: as §1

CN[C@@H](C)C(=O)Nc1ccc(-c2c(-c3cccnc3OC)nc3cc(C)ccn23)c(C#Cc2ccc3c(C)nccc3c2)n1 [SMACm, BI 891065]
IC50 [1]: 7.58 µM
IC50 [2]: 2.86 µM
IC50 [3]: 2.83 µM
IC50 [4]: 4.59 µM
IC50 [5]: 0.102 µM
IC50 [6]: 1.24 µM
IC50 [7]: 4.04 µM
IC50 [8]: 2.41 µM
IC50 [9]: 4.25 µM
IC50 [10]: 4.63 µM
IC50 [11]: 2.79 µM
IC50 [12]: 3.1 µM
IC50 [13]: 3.2 µM
IC50 [14]: 1.76 µM
IC50 [15]: 3.9 µM
